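Protocol summary: plate cells (96-well), add compound at 5 concentrations, incubate 48 h, interpolate endpoints linearly. Definition used: TGI = concentration required for complete inhibition of growth.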
Assays:
Test in all cases: inhibition of tumour cell growth, NCI panel, 48 h
A549 NSCLC = test system: A549 NSCLC
MDA-N = test system: MDA-N
OVCAR-4 ovarian = test system: OVCAR-4 ovarian
MDA-MB-231 breast = test system: MDA-MB-231 breast
HS 578T breast = test system: HS 578T breast
U251 CNS = test system: U251 CNS
SK-OV-3 ovarian = test system: SK-OV-3 ovarian
RPMI-8226 leukemia = test system: RPMI-8226 leukemia
UO-31 renal = test system: UO-31 renal
UACC-62 melanoma = test system: UACC-62 melanoma
SNB-75 CNS = test system: SNB-75 CNS
DU-145 prostate = test system: DU-145 prostate
KM12 colon = test system: KM12 colon
SK-MEL-5 melanoma = test system: SK-MEL-5 melanoma
LOX IMVI melanoma = test system: LOX IMVI melanoma
SR leukemia = test system: SR leukemia
MOLT-4 leukemia = test system: MOLT-4 leukemia
K-562 leukemia = test system: K-562 leukemia
IGROV1 ovarian = test system: IGROV1 ovarian
MALME-3M melanoma = test system: MALME-3M melanoma
HL-60(TB) leukemia = test system: HL-60(TB) leukemia
T-47D breast = test system: T-47D breast
HCC-2998 colon = test system: HCC-2998 colon
TK-10 renal = test system: TK-10 renal
786-0 renal = test system: 786-0 renal
SK-MEL-28 melanoma = test system: SK-MEL-28 melanoma
NCI-H460 lung = test system: NCI-H460 lung
EKVX NSCLC = test system: EKVX NSCLC
M14 melanoma = test system: M14 melanoma
SF-539 CNS = test system: SF-539 CNS
HCT-15 colon = test system: HCT-15 colon
SW-620 colon = test system: SW-620 colon
COLO 205 colon = test system: COLO 205 colon
MCF7 breast = test system: MCF7 breast
SN12C renal = test system: SN12C renal
NCI-H23 lung = test system: NCI-H23 lung
BT-549 breast = test system: BT-549 breast
SF-268 CNS = test system: SF-268 CNS
CAKI-1 renal = test system: CAKI-1 renal
UACC-257 melanoma = test system: UACC-257 melanoma
OVCAR-8 ovarian = test system: OVCAR-8 ovarian
CCRF-CEM leukemia = test system: CCRF-CEM leukemia
HOP-62 NSCLC = test system: HOP-62 NSCLC
HOP-92 NSCLC = test system: HOP-92 NSCLC
NCI/ADR-RES ovarian = test system: NCI/ADR-RES ovarian
SF-295 CNS = test system: SF-295 CNS
MDA-MB-435 = test system: MDA-MB-435
OVCAR-3 ovarian = test system: OVCAR-3 ovarian
NCI-H226 lung = test system: NCI-H226 lung
RXF 393 renal = test system: RXF 393 renal
OVCAR-5 ovarian = test system: OVCAR-5 ovarian
NCI-H522 lung = test system: NCI-H522 lung
HCT-116 colon = test system: HCT-116 colon
SNB-19 CNS = test system: SNB-19 CNS
ACHN renal = test system: ACHN renal
HT29 colon = test system: HT29 colon
A498 renal = test system: A498 renal

Structure (SMILES): O=C(CC(=O)Nc1ccccc1)N/N=C/c1cc(N=Nc2ccc(Br)cc2)ccc1O
- TGI (A549 NSCLC): > 10 µM
- TGI (MDA-N): > 10 µM
- TGI (OVCAR-4 ovarian): > 10 µM
- TGI (MDA-MB-231 breast): > 10 µM
- TGI (HS 578T breast): > 10 µM
- TGI (U251 CNS): > 10 µM
- TGI (SK-OV-3 ovarian): > 10 µM
- TGI (RPMI-8226 leukemia): > 10 µM
- TGI (UO-31 renal): 7.93 µM
- TGI (UACC-62 melanoma): > 10 µM
- TGI (SNB-75 CNS): > 10 µM
- TGI (DU-145 prostate): > 10 µM
- TGI (KM12 colon): > 10 µM
- TGI (SK-MEL-5 melanoma): > 10 µM
- TGI (LOX IMVI melanoma): > 10 µM
- TGI (SR leukemia): 9.75 µM
- TGI (MOLT-4 leukemia): > 10 µM
- TGI (K-562 leukemia): > 10 µM
- TGI (IGROV1 ovarian): > 10 µM
- TGI (MALME-3M melanoma): > 10 µM
- TGI (HL-60(TB) leukemia): 6 µM
- TGI (T-47D breast): > 10 µM
- TGI (HCC-2998 colon): > 10 µM
- TGI (TK-10 renal): > 10 µM
- TGI (786-0 renal): > 10 µM
- TGI (SK-MEL-28 melanoma): > 10 µM
- TGI (NCI-H460 lung): > 10 µM
- TGI (EKVX NSCLC): > 10 µM
- TGI (M14 melanoma): > 10 µM
- TGI (SF-539 CNS): > 10 µM
- TGI (HCT-15 colon): > 10 µM
- TGI (SW-620 colon): > 10 µM
- TGI (COLO 205 colon): > 10 µM
- TGI (MCF7 breast): > 10 µM
- TGI (SN12C renal): > 10 µM
- TGI (NCI-H23 lung): > 10 µM
- TGI (BT-549 breast): > 10 µM
- TGI (SF-268 CNS): > 10 µM
- TGI (CAKI-1 renal): > 10 µM
- TGI (UACC-257 melanoma): 7.71 µM
- TGI (OVCAR-8 ovarian): > 10 µM
- TGI (CCRF-CEM leukemia): 5.3 µM
- TGI (HOP-62 NSCLC): > 10 µM
- TGI (HOP-92 NSCLC): > 10 µM
- TGI (NCI/ADR-RES ovarian): > 10 µM

Structure (SMILES): CCOC(=O)[C@H](Cc1ccc(O)cc1)N=C1[C@H]2CCC[C@]1(O)[C@@](C)([N+](=O)[O-])C2
- TGI (A549 NSCLC): > 100 µM
- TGI (SF-295 CNS): > 100 µM
- TGI (MDA-N): > 100 µM
- TGI (OVCAR-4 ovarian): > 100 µM
- TGI (HS 578T breast): > 100 µM
- TGI (U251 CNS): > 100 µM
- TGI (SK-OV-3 ovarian): > 100 µM
- TGI (RPMI-8226 leukemia): > 100 µM
- TGI (UO-31 renal): > 100 µM
- TGI (MDA-MB-435): > 100 µM
- TGI (UACC-62 melanoma): > 100 µM
- TGI (OVCAR-3 ovarian): > 100 µM
- TGI (NCI-H226 lung): > 100 µM
- TGI (RXF 393 renal): > 100 µM
- TGI (DU-145 prostate): > 100 µM
- TGI (KM12 colon): > 100 µM
- TGI (SK-MEL-5 melanoma): > 100 µM
- TGI (LOX IMVI melanoma): > 100 µM
- TGI (OVCAR-5 ovarian): > 100 µM
- TGI (SR leukemia): > 100 µM
- TGI (MOLT-4 leukemia): > 100 µM
- TGI (NCI-H522 lung): > 100 µM
- TGI (K-562 leukemia): > 100 µM
- TGI (HCT-116 colon): > 100 µM
- TGI (IGROV1 ovarian): > 100 µM
- TGI (MALME-3M melanoma): > 100 µM
- TGI (HL-60(TB) leukemia): > 100 µM
- TGI (HCC-2998 colon): > 100 µM
- TGI (TK-10 renal): > 100 µM
- TGI (786-0 renal): > 100 µM
- TGI (SK-MEL-28 melanoma): > 100 µM
- TGI (SNB-19 CNS): > 100 µM
- TGI (NCI-H460 lung): > 100 µM
- TGI (EKVX NSCLC): > 100 µM
- TGI (ACHN renal): > 100 µM
- TGI (M14 melanoma): > 100 µM
- TGI (SF-539 CNS): > 100 µM
- TGI (HT29 colon): > 100 µM
- TGI (HCT-15 colon): > 100 µM
- TGI (SW-620 colon): > 100 µM
- TGI (COLO 205 colon): > 100 µM
- TGI (MCF7 breast): > 100 µM
- TGI (SN12C renal): > 100 µM
- TGI (NCI-H23 lung): > 100 µM
- TGI (BT-549 breast): > 100 µM
- TGI (CAKI-1 renal): > 100 µM
- TGI (UACC-257 melanoma): > 100 µM
- TGI (OVCAR-8 ovarian): > 100 µM
- TGI (CCRF-CEM leukemia): > 100 µM
- TGI (A498 renal): > 100 µM
- TGI (HOP-92 NSCLC): > 100 µM
- TGI (NCI/ADR-RES ovarian): > 100 µM
